SMILES strings stand for the structures. Values after ≈ are worked out from the molar mass of the structure shown. Where two headings read alike, the source gives them in different places.

This is an account of results in US6821980B1, “Substituted 5-benzyl-2,4-diaminopyrimidines” (Basilea Pharmaceutica AG, priority 1999, dated 2004).

For experiment [1], the target named is T1, purified DHFR of strain Sp1/1 of Streptococcus pneumoniae (Streptococcus pneumoniae serotype 4, UniProt Q54801).
T1 sequence (Q54801 1-168 I100L): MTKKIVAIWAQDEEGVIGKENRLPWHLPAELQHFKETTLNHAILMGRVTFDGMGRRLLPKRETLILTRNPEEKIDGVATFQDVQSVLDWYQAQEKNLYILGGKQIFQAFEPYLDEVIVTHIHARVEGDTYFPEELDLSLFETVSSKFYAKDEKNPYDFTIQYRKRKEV
The class given is biochemical. Particulars: Table 2; IC50 against purified DHFR of strain Sp1/1.

Experiment [2] relates to Streptococcus pneumoniae 1/1. Nature of the experiment: MIC against Streptococcus pneumoniae 1/1. Particulars: Table 2, Streptococcus pneumoniae 1/1, trimethoprim- and penicillin-resistant, serotype 6, clinical isolate; for MIC: read-out: MIC Sp1/1. Format: cell-based.
Experiment [3] deals with purified DHFR of strain 157/4696 of Staphylococcus aureus (Staphylococcus aureus, UniProt P13955). Nature of the experiment: biochemical.
For experiment [4], the system named is Staphylococcus aureus 101. Nature of the experiment: MIC against Staphylococcus aureus 101. Format: cell-based. Particulars: Table 2, Staphylococcus aureus 101, MRSA- and trimethoprim-resistant, clinical isolate; for MIC: read-out: MIC Sa101.

purified DHFR of strain 157/4696 of Staphylococcus aureus, sequence (P13955 whole entry): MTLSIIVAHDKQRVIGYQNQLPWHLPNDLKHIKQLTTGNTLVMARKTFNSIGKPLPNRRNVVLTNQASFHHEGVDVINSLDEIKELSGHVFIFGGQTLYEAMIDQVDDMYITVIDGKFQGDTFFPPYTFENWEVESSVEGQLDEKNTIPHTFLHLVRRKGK

Take `CCOc1cc(Cc2cnc(N)nc2N)cc(OS(=O)(=O)N(C)C)c1-c1ccc(N)c(C#N)c1` [Example 43-c, Dimethylsulphamic acid 4′-amino-3′-cyano-4-(2,4-diamino-gvrimidin-5-ylmethyl)-6-ethoxy-biphenyl-2-yl ester]: the IC50 in experiment [1] is 0.024 µM; in experiment [3] it was 0.16 µM. Further, the MIC in experiment [2] and in experiment [4] was 2 mg/L (≈ 4.14 µM) each time.

With `CCOc1cc(Cc2cnc(N)nc2N)cc(OS(=O)(=O)N(C)C)c1-c1ccc2[nH]ccc2c1` [Example 43-d, Dimethylsulphamic acid 5-(2,4-diamino-pyrimidin-5-ylmethyl)-3-ethoxy-2-(1H-indol-5-yl)-phenyl ester], the results for the IC50 in experiment [1] and in experiment [3] were 0.042 µM and 0.18 µM, respectively. For the same compound, the MIC in experiment [2] and in experiment [4] was 1 mg/L (≈ 2.07 µM) each time.

Consider `CCOc1cc(Cc2cnc(N)nc2N)cc(OCC)c1-c1cccc(NS(C)(=O)=O)c1` [Example 44-, N-[4′-(2,4-Diamino-pyrimidin-5-ylmethyl)-2′,6′-diethoxy-biphenyl-3-yl]-methanesulphonamide], for which the values for the IC50 in experiment [1] and in experiment [3] were 0.018 µM and 0.68 µM, respectively. Besides, the MIC in experiment [2] worked out at 2 mg/L (≈ 4.37 µM); in experiment [4], 8 mg/L (≈ 17.5 µM).

Take `CCOc1cc(Cc2cnc(N)nc2N)cc(OCC)c1-c1ccc(OS(C)(=O)=O)cc1` [Example 45-, Methanesulphonic acid 4′-(2,4-diamino-pyrimidin-5-ylmethyl)-2′,6′-diethoxy-biphenyl-4-yl ester]: the IC50 in experiment [1] stood at 0.13 µM; in experiment [3] it was 2.4 µM. In addition, the MIC in experiment [2] stood at 4 mg/L (≈ 8.72 µM); in experiment [4], 8 mg/L (≈ 17.4 µM).

In the case of `CCOc1cc(Cc2cnc(N)nc2N)cc(OCC)c1-c1ccc(OCC(N)=O)cc1` [Example 46-, 2-[4′-(2,4-Diamino-pylimidin-5-ylmethyl)-2′,6′-diethoxy-biphenyl-4-yloxy]-acetamide], the IC50 in experiment [1] turned out to be 0.055 µM; in experiment [3] it was 0.75 µM. The MIC stood at 2 mg/L (≈ 4.57 µM) in experiment [2] and 8 mg/L (≈ 18.3 µM) in experiment [4].

On to `CCOc1cc(Cc2cnc(N)nc2N)cc(OCC2(CCC#N)CC2)c1-c1ccc(O)cc1` [Example 47-, 3-{1-[4-(2,4-Diamino-pyrimidin-5-yjmethyl)-6-ethoxy-4′-hydroxy-biphenyl-2-loxymethyl]-cycloprropyl}-propionitrile], for which the IC50 is 0.01 µM in experiment [1] and 1.2 µM in experiment [3] (Table 2, IC50 against purified DHFR of strain 157/4696 (highly trimethoprim-resistant; clinical isolate), read-out: DHFR Sa1). For the same compound, in experiment [2], the “MIC Sp1/1” value was determined as 2 mg/L (≈ 4.35 µM). In addition, the “MIC Sa101” value in experiment [4] stood at 8 mg/L (≈ 17.4 µM).

With `CCOc1cc(Cc2cnc(N)nc2N)cc(OCC(C)(C)CCC#N)c1-c1ccc(O)cc1` [Example 48-, 5-[4-(2,4-Diamino-pyrimidin-5-ylmethyl) 6-ethoy-4′-hydro-biPhenyl-2-xyloxy]-4,4-dimethyl-pentanenitrile], the results for the IC50 in experiment [1] and in experiment [3] were 0.03 µM and 0.75 µM, respectively. In addition, the MIC in experiment [2] worked out at 2 mg/L (≈ 4.33 µM); in experiment [4], 4 mg/L (≈ 8.67 µM).

`CCOc1cc(Cc2cnc(N)nc2N)cc(OCC)c1-c1ccc2c(c1)CCCN2` [Example 49-, 5-[3,5-Diethoxy-4-(1,2,3,4-tetrahydro-quinolin-6-yl)-benzyl]-pyrimidine-2,4-diamine]: the IC50 in experiment [1] was 0.046 µM; in experiment [3] it was 0.82 µM. Besides, the MIC came to 8 mg/L (≈ 19.1 µM) in experiment [2] and 4 mg/L (≈ 9.53 µM) in experiment [4].

For `CCOc1cc(Cc2cnc(N)nc2N)cc(OCC)c1-c1cccc(OCCOC)c1` [Example 50-, 5-[2,6-Diethoxy-3′-(2-methoxy-ethoxy)-biphenyl-4-ylmethyl]-pyrimidine-2,4-diamine], the IC50 in experiment [1] is 0.032 µM; in experiment [3] it was 10 µM. The MIC was 4 mg/L (≈ 9.12 µM) in experiment [2] and 8 mg/L (≈ 18.2 µM) in experiment [4].

With `CCCOc1cc(Cc2cnc(N)nc2N)cc(OCCC)c1-c1cccc(N)c1` [Example 51-, 5-(3′-Amino-2,6-di-n-propoxy-biphenyl-4-ylmethyl)-pyrimidine-2,4-diamine], the figures for the IC50 in experiment [1] and in experiment [3] were 0.043 µM and 8.5 µM, respectively. Further, the MIC was 2 mg/L (≈ 4.91 µM) in experiment [2] and 8 mg/L (≈ 19.6 µM) in experiment [4].

For the compound `CCCOc1cc(Cc2cnc(N)nc2N)cc(OCCC)c1-c1cccc(O)c1` [Example 52-, 4′-(2,4-Diamino-pyrimidin-5-ylmethyl)-2′,6′-digropobiphenyl-3-ol], the IC50 in experiment [1] came to 0.02 µM; in experiment [3] it was 5.8 µM. Besides, the MIC in experiment [2] was 1 mg/L (≈ 2.45 µM); in experiment [4], 8 mg/L (≈ 19.6 µM).

In the case of `CCCOc1cc(Cc2cnc(N)nc2N)cc(OCC)c1-c1cccc(O)c1` [Example 53-, 4′-(2,4-Diamino-pyrimidin-5-ylmethyl)-6′-ethoxy-2′-n-propoxy-biphenyl-3-ol], the IC50 was found to be 0.028 µM in experiment [1] and 1.8 µM in experiment [3]. The MIC in experiment [2] came out at 4 mg/L (≈ 10.1 µM); in experiment [4] it was 8 mg/L (≈ 20.3 µM).

On to `CCOc1cc(Cc2cnc(N)nc2N)cc(OCC2CC2)c1-c1cccc(O)c1` [Example 54-, 2′-Cyclopropanomethoxy-4′-(2,4-diamino-pyrimidin-5-ylmethyl)-6′-ethoxy-biphenyl-3-ol], for which the IC50 came to 0.019 µM in experiment [1] and 3.1 µM in experiment [3]. In addition, the values for the MIC in experiment [2] and in experiment [4] were 2 mg/L (≈ 4.92 µM) and 8 mg/L (≈ 19.7 µM), respectively.

For `CCOc1cc(Cc2cnc(N)nc2N)cc(OCC2CC2)c1-c1ccc(OCCO)cc1` [Example 55-, 2-[2′-Cyclopropylmethoxy-4′-(2,4-diamino-pyrimidin-5-ylmethyl)-6′-ethoxy-biphenyl-4-yloxy]-ethanol], the values for the IC50 in experiment [1] and in experiment [3] were 0.048 µM and 1.7 µM, respectively. The MIC in experiment [2] was determined as 4 mg/L (≈ 8.88 µM); in experiment [4], 8 mg/L (≈ 17.8 µM).

`CCOc1cc(Cc2cnc(N)nc2N)cc(OCC2CC2)c1-c1ccc(OS(C)(=O)=O)cc1` [Example 57-, Methanesulphonic acid 2′-cylopropylmethoxy-4′-(2,4-diamino-pyrimidin-5-ylmethyl)-6′-ethoxy-biphenyl-4-yl ester]: the IC50 amounted to 0.03 µM in experiment [1] and 3.6 µM in experiment [3]. Besides, the results for the MIC in experiment [2] and in experiment [4] were 4 mg/L (≈ 8.25 µM) and 8 mg/L (≈ 16.5 µM), respectively.

As for `CCOc1cc(Cc2cnc(N)nc2N)cc(OS(=O)(=O)C(C)C)c1-c1ccc(OC(C)=O)cc1` [Example 58-, 4′-(2,4-Diamino-pyrimidin-5-ylmethyl)-6′-ethoxy-2′-(propane-2-sulphonyloxy)-biphenyl-4-yl acetate], the IC50 amounted to 0.032 µM in experiment [1] and 0.055 µM in experiment [3]. In addition, the MIC in experiment [2] and in experiment [4] was 2 mg/L throughout.

For `CCOc1cc(Cc2cnc(N)nc2N)cc(OCC2CC2)c1-c1ccc(OCC#N)cc1` [Example 59-, [2′-Cycloproplmethoxy-4′-(2,4-diamino-pyrimidin-5-ylmethyl)-6′-ethoxy-biphenyl-4-yloxy]-acetonitrile], the values for the IC50 in experiment [1] and in experiment [3] were 0.018 µM and 1.8 µM, respectively. Further, the MIC was determined as 2 mg/L (≈ 4.49 µM) in experiment [2] and 8 mg/L (≈ 18 µM) in experiment [4].

On to `CCOc1cc(Cc2cnc(N)nc2N)cc(OS(=O)(=O)N(C)C)c1-c1ccc(S(C)(=O)=O)cc1` [Example 60-, Dimethylsulphamic acid 4-(2,4-diamino-pyrimidin-5-ylmethyl)-6-ethoxy-4′-methanesulphonyl-biphenyl-2-yl ester], for which the IC50 was determined as 0.088 µM in experiment [1] and 0.28 µM in experiment [3]. Further, the MIC in experiment [2] came out at 8 mg/L (≈ 15.3 µM); in experiment [4], 4 mg/L (≈ 7.67 µM).

In the case of `CCOc1cc(Cc2cnc(N)nc2N)cc(OS(=O)(=O)CC(C)C)c1-c1ccc(OCCO)cc1` [Example 61-a, 2-Methyl-propane-1-sulphonic acid 4-(2,4-diamino-pyrimidin-5-ylmethyl)-6-ethoxy-4′-(2-hydroxy-ethoxy)-biphenyl-2-yl ester], the IC50 in experiment [1] turned out to be 0.0018 µM; in experiment [3], 0.55 µM. In addition, the MIC in experiment [2] is 0.5 mg/L (≈ 0.968 µM); in experiment [4], 2 mg/L (≈ 3.87 µM).

Regarding `CCOc1cc(Cc2cnc(N)nc2N)cc(OS(=O)(=O)C(C)CC)c1-c1ccc(OCCO)cc1` (centres unmarked) [Example 61-b], the IC50 amounted to 0.011 µM in experiment [1] and 0.21 µM in experiment [3]. Besides, the MIC is 1 mg/L (≈ 1.94 µM) in experiment [2] and 2 mg/L (≈ 3.87 µM) in experiment [4].

`CCOc1cc(Cc2cnc(N)nc2N)cc(OS(=O)(=O)N(C)C)c1-c1ccc(OC(C)=O)cc1` [Example 62-, 4′-(2,4-Diamino-pyrimidin-5-ylmethyl)-2′-dimethylsulphamoylxy-6′-ethoxy-biphenyl-4-yl acetate]: the IC50 in experiment [1] came to 0.0079 µM; in experiment [3], 0.33 µM. Further, the MIC in experiment [2] and in experiment [4] was 2 mg/L each time.

Regarding `CCOc1cc(Cc2cnc(N)nc2N)cc(OS(=O)(=O)CC(C)C)c1-c1ccc(OCCOC)cc1` [Example 63-, 2-Methyl-propane-1-sulphonic acid 4-(2,4-diamino-pyrimidin-5-ylmethyA)-6-ethoxy-4′-(2-methox-ethoxy)-biphenyl-2-yl ester], the IC50 was 0.0018 µM in experiment [1] and 0.38 µM in experiment [3]. For the same compound, the MIC turned out to be 1 mg/L (≈ 1.88 µM) in experiment [2] and 4 mg/L (≈ 7.54 µM) in experiment [4].

As to `CCOc1cc(Cc2cnc(N)nc2N)cc(OS(C)(=O)=O)c1-c1ccc(CN2CCOCC2)c(F)c1` [Example 64-a, Methanesulphonic acid 4-(2,4-diamino-pyrimidin-5-ylmethyl)-6-ethoxy-3′-fluoro-4′-morpholin-4-ylmethyl-biphenyl-2-yl ester], the IC50 in experiment [1] stood at 0.052 µM; in experiment [3], 1.5 µM. The MIC in experiment [2] was 4 mg/L (≈ 7.52 µM); in experiment [4], 8 mg/L (≈ 15 µM).
